Numbers after ± are expanded uncertainties.
Experiment: xn = mol fraction of the nth substance listed
Conditions: 100 kPa, Liquid; for viscosity: Falling or rolling sphere viscometry; for mass density: Vibrating tube method

C1CCC(C2CCCCC2)CC1 [1,1'-bicyclohexyl] + CCCCCCCCCCCC
Conditions	mass density [kg/m3]	viscosity [mPa·s]
293.15 K, x2 = 0	886.05 ± 0.89	4.003 ± 0.085
293.15 K, x2 = 0.1055	869.17 ± 0.88	3.406 ± 0.073
293.15 K, x2 = 0.2016	854.56 ± 0.86	3 ± 0.064
293.15 K, x2 = 0.3019	839.7 ± 0.85	2.637 ± 0.056
293.15 K, x2 = 0.398	825.91 ± 0.83	2.369 ± 0.05
293.15 K, x2 = 0.5006	811.71 ± 0.82	2.166 ± 0.046
293.15 K, x2 = 0.5953	798.95 ± 0.81	1.998 ± 0.043
293.15 K, x2 = 0.6911	786.49 ± 0.8	1.839 ± 0.039
293.15 K, x2 = 0.7985	772.97 ± 0.78	1.697 ± 0.036
293.15 K, x2 = 0.8888	761.97 ± 0.77	1.62 ± 0.034
298.15 K, x2 = 0	882.44 ± 0.89	3.53 ± 0.075
298.15 K, x2 = 0.1055	865.58 ± 0.87	3.025 ± 0.064
298.15 K, x2 = 0.2016	850.98 ± 0.86	2.681 ± 0.057
298.15 K, x2 = 0.3019	836.11 ± 0.84	2.366 ± 0.05
298.15 K, x2 = 0.398	822.33 ± 0.83	2.136 ± 0.045
298.15 K, x2 = 0.5006	808.14 ± 0.82	1.955 ± 0.042
298.15 K, x2 = 0.5953	795.38 ± 0.8	1.811 ± 0.039
298.15 K, x2 = 0.6911	782.91 ± 0.79	1.672 ± 0.036
298.15 K, x2 = 0.7985	769.38 ± 0.78	1.548 ± 0.033
298.15 K, x2 = 0.8888	758.37 ± 0.77	1.466 ± 0.031
303.15 K, x2 = 0	878.84 ± 0.88	3.137 ± 0.067
303.15 K, x2 = 0.1055	861.99 ± 0.87	2.706 ± 0.058
303.15 K, x2 = 0.2016	847.4 ± 0.86	2.411 ± 0.051
303.15 K, x2 = 0.3019	832.52 ± 0.84	2.138 ± 0.046
303.15 K, x2 = 0.398	818.74 ± 0.83	1.938 ± 0.041
303.15 K, x2 = 0.5006	804.55 ± 0.81	1.777 ± 0.038
303.15 K, x2 = 0.5953	791.78 ± 0.8	1.652 ± 0.035
303.15 K, x2 = 0.6911	779.31 ± 0.79	1.529 ± 0.033
303.15 K, x2 = 0.7985	765.77 ± 0.78	1.417 ± 0.03
303.15 K, x2 = 0.8888	754.75 ± 0.77	1.331 ± 0.028
308.15 K, x2 = 0	875.25 ± 0.88	2.81 ± 0.06
308.15 K, x2 = 0.1055	858.41 ± 0.87	2.438 ± 0.052
308.15 K, x2 = 0.2016	843.81 ± 0.85	2.182 ± 0.046
308.15 K, x2 = 0.3019	828.94 ± 0.84	1.943 ± 0.041
308.15 K, x2 = 0.398	815.15 ± 0.82	1.766 ± 0.038
308.15 K, x2 = 0.5006	800.96 ± 0.81	1.624 ± 0.035
308.15 K, x2 = 0.5953	788.19 ± 0.8	1.513 ± 0.032
308.15 K, x2 = 0.6911	775.71 ± 0.79	1.405 ± 0.03
308.15 K, x2 = 0.7985	762.15 ± 0.77	1.305 ± 0.028
308.15 K, x2 = 0.8888	751.13 ± 0.76	1.223 ± 0.026
313.15 K, x2 = 0	871.66 ± 0.88	2.532 ± 0.054
313.15 K, x2 = 0.1055	854.82 ± 0.86	2.209 ± 0.047
313.15 K, x2 = 0.2016	840.23 ± 0.85	1.985 ± 0.042
313.15 K, x2 = 0.3019	825.35 ± 0.83	1.776 ± 0.038
313.15 K, x2 = 0.398	811.56 ± 0.82	1.618 ± 0.034
313.15 K, x2 = 0.5006	797.36 ± 0.81	1.492 ± 0.032
313.15 K, x2 = 0.5953	784.58 ± 0.79	1.393 ± 0.03
313.15 K, x2 = 0.6911	772.09 ± 0.78	1.298 ± 0.028
313.15 K, x2 = 0.7985	758.53 ± 0.77	1.206 ± 0.026
313.15 K, x2 = 0.8888	747.5 ± 0.76	1.131 ± 0.024
318.15 K, x2 = 0	868.08 ± 0.87	2.296 ± 0.049
318.15 K, x2 = 0.1055	851.24 ± 0.86	2.012 ± 0.043
318.15 K, x2 = 0.2016	836.64 ± 0.85	1.815 ± 0.039
318.15 K, x2 = 0.3019	821.76 ± 0.83	1.629 ± 0.035
318.15 K, x2 = 0.398	807.96 ± 0.82	1.489 ± 0.032
318.15 K, x2 = 0.5006	793.76 ± 0.8	1.377 ± 0.029
318.15 K, x2 = 0.5953	780.98 ± 0.79	1.288 ± 0.027
318.15 K, x2 = 0.6911	768.48 ± 0.78	1.203 ± 0.026
318.15 K, x2 = 0.7985	754.91 ± 0.77	1.119 ± 0.024
318.15 K, x2 = 0.8888	743.86 ± 0.76	1.05 ± 0.022
323.15 K, x2 = 0	864.5 ± 0.87	2.092 ± 0.045
323.15 K, x2 = 0.1055	847.66 ± 0.86	1.842 ± 0.039
323.15 K, x2 = 0.2016	833.06 ± 0.84	1.667 ± 0.036
323.15 K, x2 = 0.3019	818.17 ± 0.83	1.501 ± 0.032
323.15 K, x2 = 0.398	804.36 ± 0.81	1.376 ± 0.029
323.15 K, x2 = 0.5006	790.16 ± 0.8	1.275 ± 0.027
323.15 K, x2 = 0.5953	777.36 ± 0.79	1.195 ± 0.025
323.15 K, x2 = 0.6911	764.85 ± 0.78	1.119 ± 0.024
323.15 K, x2 = 0.7985	751.27 ± 0.76	1.041 ± 0.022
323.15 K, x2 = 0.8888	740.21 ± 0.75	0.978 ± 0.021
328.15 K, x2 = 0	860.93 ± 0.87	1.915 ± 0.041
328.15 K, x2 = 0.1055	844.08 ± 0.85	1.693 ± 0.036
328.15 K, x2 = 0.2016	829.47 ± 0.84	1.536 ± 0.033
328.15 K, x2 = 0.3019	814.58 ± 0.82	1.389 ± 0.03
328.15 K, x2 = 0.398	800.76 ± 0.81	1.276 ± 0.027
328.15 K, x2 = 0.5006	786.54 ± 0.8	1.184 ± 0.025
328.15 K, x2 = 0.5953	773.74 ± 0.78	1.112 ± 0.024
328.15 K, x2 = 0.6911	761.22 ± 0.77	1.043 ± 0.022
328.15 K, x2 = 0.7985	747.63 ± 0.76	0.973 ± 0.021
328.15 K, x2 = 0.8888	736.56 ± 0.75	0.914 ± 0.019
333.15 K, x2 = 0	857.35 ± 0.86	1.762 ± 0.038
333.15 K, x2 = 0.1055	840.5 ± 0.85	1.563 ± 0.033
333.15 K, x2 = 0.2016	825.89 ± 0.83	1.423 ± 0.03
333.15 K, x2 = 0.3019	810.98 ± 0.82	1.288 ± 0.027
333.15 K, x2 = 0.398	797.16 ± 0.81	1.186 ± 0.025
333.15 K, x2 = 0.5006	782.93 ± 0.79	1.104 ± 0.024
333.15 K, x2 = 0.5953	770.11 ± 0.78	1.039 ± 0.022
333.15 K, x2 = 0.6911	757.59 ± 0.77	0.976 ± 0.021
333.15 K, x2 = 0.7985	743.98 ± 0.76	0.91 ± 0.019
333.15 K, x2 = 0.8888	732.9 ± 0.75	0.856 ± 0.018
